# Laboratory results as given in patent US5196449A, “Methods and pharmaceutical compositions for the treatment of ophthalmic diseases” (IdB Holding SpA, priority 1989, dated 1993).
# Experiments:
# [1] = system: vessels of the ciliary body (haemato-ophthalmic barrier); test: Permeability of the haemato-ophthalmic barrier induced by paracentesis in the rabbit (Evans Blue dye method); format: in vivo, New Zealand albino rabbit; details: for Amount of dye coming out of the vessels of the ciliary body (in words): single dose of 100 or 200 mg/kg, two or four hours after administration
# Procedure: (§1) The effect on the permeability of the haemato-ophthalmic barrier was measured by inducing an increase in the permeability of the vessels of the ciliary body, either by paracentesis or by instillation of sodium hydroxide into the conjunctival sac. The reduction in permeability induced by oral administration of the products under examination was then measured.
# The experiment was carried out on 80 New Zealand albino rabbits, average body weight 2.8 kg, divided into eight groups each of ten animals.
# The vasal permeability was measured by the dye method: 1 ml of Evans Blue in a concentration of 0.5% was injected into the marginal vein of the auricle.
# After 10 minutes the left eye was subjected to paracentesis and after 12 minutes a sample of aqueous humour was taken. The quantity of Evans Blue in the sampled aqueous humour was used to assess the permeability of the haemato-ophthalmic barrier. Immediately afterwards, compounds I and II were administered in doses of 100 or 200 mg/kg by stomach probe.
# Two or four hours after administration, paracentesis was carried out on the right eye and after 12 minutes a sample of aqueous humour was taken.
# The quantity of Evans Blue in the aqueous humour was evaluated by spectrophotometer reading at 623 nm. […]
# [2] = system: vessels of the ciliary body (haemato-ophthalmic barrier); test: Permeability of the haemato-ophthalmic barrier induced by NaOH in the rabbit (Evans Blue); format: in vivo, New Zealand rabbit; details: seven days; for Percentage variation of Evans Blue: vs controls; for Reduction in permeability, significance (in words): 100 mg/kg os; for Permeability of the vessels of the ciliary body caused by the irritating agent (in words): 50 or 100 mg/kg os
# Procedure: as §1
# The experiment was carried out on 50 New Zealand rabbits, average body weight 2.2 kg. The substance was administered once a day for seven days in doses of 50 or 100 mg/kg. A control group was treated with tap water.
# Thirty minutes after the last administration, 1 ml of a 0.5% solution of Evans Blue was administered in the marginal vein of the ear. After 30 minutes, inflammation of the eye tissue was produced by instilling two drops of 0.25N sodium hydroxide in the conjunctival sac. Two hours later the animal was anesthesized and a sample of aqueous humour was taken in order to measure the proportion of dye.
# [3] = system: vessels of the ciliary body (haemato-ophthalmic barrier); test: Permeability of the haemato-ophthalmic barrier induced by histamine (corneal lens method, Evans Blue); format: in vivo, New Zealand rabbit; details: for Permeability of the vessels of the ciliary body caused by histamine (in words) / Effects, significance (in words): 100 mg/kg by gavage; for Effects, significance (in words): after 2 and 4 hours; for Evans Blue in aqueous humour, m ± sd / Percentage variation of Evans Blue relative to time 0: 100 mg/kg os
# Procedure: The experiment was carried out on […] New Zealand rabbits, average body weight 2.5 kg, divided into three groups of ten animals each.
# The vasal permeability was measured by the dye method: 1 ml of Evans Blue in a concentration of 0.5% was injected into the marginal vein of the ear. After 10 min a soft corneal lens embedded in a 2% solution of histamine hydrochloride was applied for 30 min to the left eye.
# The left eye was subjected to paracentesis and a sample of aqueous humour was taken.
# Immediately after, the substances were given by gavage at the dose of 100 mg/kg. Two or four hours after administration a lens embedded with histamine as described before was applied for 30 min on the right eye. Paracentesis was carried out and aqueous humor was taken.
# The quantity of Evans Blue in the aqueous humor was evaluated as described in 1(i).
# [4] = Acute toxicity in mice, stomach probe; format: in vivo; details: for Toxic symptoms or death (in words): doses up to 6 g/kg; for LD50: mouse, in vivo, po
# Procedure: (§2) This was tested on mice and rats after administration by stomach probe. […] The LD 50 must therefore be above 6 g/kg.
# [5] = Acute toxicity in rats, stomach probe; format: in vivo; details: for Toxic symptoms or death (in words): doses up to 6 g/kg; for LD50: rat, in vivo, po
# Procedure: as §2
# [6] = system: conjunctiva, cornea, iris, crystalline lens, vitreous humour and retina; test: Ocular tolerability after oral administration; format: in vivo, New Zealand rabbit; details: single (200 mg/kg) or repeated (100 mg/kg, 7 days) oral administration
# Procedure: The ocular tolerability of compounds I and II was measured in New Zealand rabbits on the anterior segment (conjunctiva, cornea, iris and crystalline lens) and on the posterior segment (vitreous humour and retina) after oral administration, local application and intra-ocular injection.
# Both products were administered by stomach probe, either in a single dose of 200 mg/kg or in repeated doses of 100 mg/kg for 7 days. Surveys were made before and 1, 2 and 4 hours after acute administration, on the third and seventh days after repeated administration and 5 days after suspension of treatment.
# [7] = 100 mg/kg os, 1 administration, 2 hours
# [8] = 100 mg/kg os, 1 administration, 4 hours
# [9] = 100 mg/kg os, 7 administrations, 24 hours after last
# [10] = 200 mg/kg os, 1 administration, 2 hours
# [11] = 200 mg/kg os, 1 administration, 4 hours
structure (smiles),measurement,setting,value
"Oc1ccc(-c2[o+]c3cc(O)cc(O)c3cc2O)cc1 [Compound I, pelargonidin]","Evans Blue in aqueous humour, m ± s.d.",[1]; [7],34.9 ± 8.5 µg/mL
same,Percentage variation of Evans Blue relative to time 0,[1]; [7],-15.4%
same,"Evans Blue in aqueous humour, m ± s.d.",[1]; [8],46.9 ± 17.5 µg/mL
same,Percentage variation of Evans Blue relative to time 0,[1]; [8],-15.5%
same,"Evans Blue in aqueous humour, m ± s.d.",[1]; [9],44.2 ± 11.7 µg/mL
same,Percentage variation of Evans Blue relative to time 0,[1]; [9],-22.4%
same,"Evans Blue in aqueous humour, m ± s.d.",[1]; [10],42.2 ± 15.0 µg/mL
same,Percentage variation of Evans Blue relative to time 0,[1]; [10],-16.4%
same,"Evans Blue in aqueous humour, m ± s.d.",[1]; [11],44.8 ± 20.2 µg/mL
same,Percentage variation of Evans Blue relative to time 0,[1]; [11],-15.6%
same,Amount of dye coming out of the vessels of the ciliary body (in words),[1],reduced in a statistically significant manner
same,"Evans Blue, m ± s.e.",[2]; 50 mg/kg/day os,5.8 ± 0.8 µg/mL
same,Percentage variation of Evans Blue,[2]; 50 mg/kg/day os,-2%
same,"Reduction in permeability, significance (in words)",[2],statistically significant compared with the controls
same,"Evans Blue, m ± s.e.",[2]; 100 mg/kg/day os,3.5 ± 0.6 µg/mL
same,Percentage variation of Evans Blue,[2]; 100 mg/kg/day os,-40%
same,Permeability of the vessels of the ciliary body caused by the irritating agent (in words),[2],dose-dependent reduction in the permeability of the vessels of the ciliary body
same,Permeability of the vessels of the ciliary body caused by histamine (in words),[3],reduced permeability of the vessels of the ciliary body caused by histamine
same,"Effects, significance (in words)",[3],statistically significant compared with the basal values
same,"Evans Blue in aqueous humour, m ± sd",[3]; 2 hours,86.2 ± 6.1 µg/mL
same,Percentage variation of Evans Blue relative to time 0,[3]; 2 hours,-19.0%
same,"Evans Blue in aqueous humour, m ± sd",[3]; 4 hours,75.9 ± 10.3 µg/mL
same,Percentage variation of Evans Blue relative to time 0,[3]; 4 hours,-29.9%
same,Toxic symptoms or death (in words),[4],did not cause toxic symptoms or death
same,LD50,[4],> 6000 mg/kg
same,Toxic symptoms or death (in words),[5],did not cause toxic symptoms or death
same,LD50,[5],> 6000 mg/kg
same,Modifications in ocular structures (in words),[6],"did not induce modifications in the conjunctive, cornea, iris, crystalline lens, vitrous humour or retina"
"Oc1cc(O)c2cc(O)c(-c3cc(O)c(O)c(O)c3)[o+]c2c1 [Compound II, delphinidin]","Evans Blue in aqueous humour, m ± s.d.",[1]; [7],41.5 ± 7.9 µg/mL
same,Percentage variation of Evans Blue relative to time 0,[1]; [7],-14.1%
same,"Evans Blue in aqueous humour, m ± s.d.",[1]; [8],45.6 ± 9.7 µg/mL
same,Percentage variation of Evans Blue relative to time 0,[1]; [8],-14.9%
same,"Evans Blue in aqueous humour, m ± s.d.",[1]; [9],42.5 ± 13.3 µg/mL
same,Percentage variation of Evans Blue relative to time 0,[1]; [9],-20.8%
same,"Evans Blue in aqueous humour, m ± s.d.",[1]; [10],45.1 ± 10.3 µg/mL
same,Percentage variation of Evans Blue relative to time 0,[1]; [10],-15.1%
same,"Evans Blue in aqueous humour, m ± s.d.",[1]; [11],45.9 ± 12.2 µg/mL
same,Percentage variation of Evans Blue relative to time 0,[1]; [11],-15.1%
same,Amount of dye coming out of the vessels of the ciliary body (in words),[1],reduced in a statistically significant manner
same,"Evans Blue, m ± s.e.",[2]; 50 mg/kg/day os,5.1 ± 0.7 µg/mL
same,Percentage variation of Evans Blue,[2]; 50 mg/kg/day os,-14%
same,"Reduction in permeability, significance (in words)",[2],statistically significant compared with the controls
same,"Evans Blue, m ± s.e.",[2]; 100 mg/kg/day os,3.2 ± 0.4 µg/mL
same,Percentage variation of Evans Blue,[2]; 100 mg/kg/day os,-45%
same,Permeability of the vessels of the ciliary body caused by the irritating agent (in words),[2],dose-dependent reduction in the permeability of the vessels of the ciliary body
same,Permeability of the vessels of the ciliary body caused by histamine (in words),[3],reduced permeability of the vessels of the ciliary body caused by histamine
same,"Effects, significance (in words)",[3],statistically significant compared with the basal values
same,"Evans Blue in aqueous humour, m ± sd",[3]; 2 hours,82.0 ± 7.0 µg/mL
same,Percentage variation of Evans Blue relative to time 0,[3]; 2 hours,-25.3%
same,"Evans Blue in aqueous humour, m ± sd",[3]; 4 hours,68.8 ± 8.7 µg/mL
same,Percentage variation of Evans Blue relative to time 0,[3]; 4 hours,-31.7%
same,Toxic symptoms or death (in words),[4],did not cause toxic symptoms or death
same,LD50,[4],> 6000 mg/kg
same,Toxic symptoms or death (in words),[5],did not cause toxic symptoms or death
same,LD50,[5],> 6000 mg/kg
same,Modifications in ocular structures (in words),[6],"did not induce modifications in the conjunctive, cornea, iris, crystalline lens, vitrous humour or retina"
